The values that follow come from article PMC314469, “Protein Interaction Networks by Proteome Peptide Scanning” (PLoS Biology, 2004).

This assay relates to Myo5 SH3 domain. The experiment in a line: SPOT analysis of cellulose-bound peptides (WISE), Myo5 SH3 domain (Dataset S4). It is filed as binding, Saccharomyces cerevisiae. The note with it: for The normalized value in BLU units: Myo5 SH3 domain.
[1] abbreviates: SPOT analysis of membrane-bound peptides, normalized value (see methods).
The mark [2] stands for this setting: SPOT analysis of membrane-synthesized peptides probed with Myo5 SH3 domain, normalized value.
Setting [3] is: SPOT analysis of cellulose-bound 14-mer yeast proteome peptides, normalized value, mean where the peptide was synthesized more than once.
Where [4] appears, read: SPOT analysis of cellulose-bound peptides probed with Myo5 SH3 domain, normalized value.

QLQEKLSPDLPDEE: the “The normalized value in BLU units” value under setting [1] is 216.1 BLU. Regarding NGTWKYNPTVPNEL, the “The normalized value in BLU units” value under setting [1] is 172.6 BLU. Regarding VCTIRSTPSQPIHC, the “The normalized value in BLU units (SPOT analysis, Myo5 SH3)” value under setting [2] was determined as 244.9 BLU. The same measure, in the same setting: to RLLSKYRPSCPIIL belongs 336.6 BLU. With TAPIHSTPKPPPND, the “The normalized value in BLU units” value under setting [3] is listed as 77.7 BLU. On to GPEFWISPDTPLKF, for which the “The normalized value in BLU units (SPOT analysis, Myo5 SH3)” value under setting [4] is 87.4 BLU. Consider PFSSMKEPFIPQSS, for which the “The normalized value in BLU units (SPOT analysis, Myo5 SH3)” value under setting [4] stood at 410.6 BLU. As to TTKHKAPPPPPPTA, the “The normalized value in BLU units (SPOT analysis, Myo5 SH3)” value under setting [2] worked out at 1684.9 BLU. As for PELAKNSPLAPIKK, the “The normalized value in BLU units” value under setting [1] is recorded as 125.2 BLU. Same read-out and setting: to YAVDKIMPPTPAKK belongs 109.8 BLU.

WETWLYKPGMPPRP: the “The normalized value in BLU units” value under setting [3] is recorded as 255.2 BLU. For GTRPKILPKIPTGA, the “The normalized value in BLU units (SPOT analysis, Myo5 SH3)” value under setting [2] was found to be 772.9 BLU. As to IFVTRYLPYFPIMY, under setting [1], the “The normalized value in BLU units” value was found to be 156.7 BLU. On the same count and under the same terms, to HEASKCFPKAPQAS belongs 288.6 BLU.

With YEVTFDGPNDPLHP, the “The normalized value in BLU units” value under setting [3] was found to be 110.9 BLU. Regarding VKPTKLEPENPQKP, the “The normalized value in BLU units (SPOT analysis, Myo5 SH3)” value under setting [2] is 91.3 BLU. The same measure, in the same setting: to PFIRRYTPLKPITK belongs 649.2 BLU. Consider HATLYWAPVSPLKS, for which the “The normalized value in BLU units” value under setting [3] stood at 151.3 BLU.

In the case of TLPPLSSPMNPNGH, under setting [4], the “The normalized value in BLU units (SPOT analysis, Myo5 SH3)” value is given as 252.3 BLU.

As to MLKALFTPLIPVSF, the “The normalized value in BLU units” value under setting [3] turned out to be 257.0 BLU. Take FQYTKGRPLAPKGA: under setting [1], the “The normalized value in BLU units” value is 235.2 BLU. Take VPLPFGIPPFPMFP: the “The normalized value in BLU units (SPOT analysis, Myo5 SH3)” value under setting [4] turned out to be 11610.9 BLU.

As for TDTTKVTPIVPVPI, under setting [2], the “The normalized value in BLU units (SPOT analysis, Myo5 SH3)” value is 48.0 BLU.

As for EAIKLGVPKGPLFA, the “The normalized value in BLU units (SPOT analysis, Myo5 SH3)” value under setting [4] stood at 130.4 BLU. Take NASAMPAPYMPYYY: the “The normalized value in BLU units (SPOT analysis, Myo5 SH3)” value under setting [4] was determined as 225.5 BLU.

Consider PNPLKKAPIPPLAY, for which the “The normalized value in BLU units” value under setting [1] is on record as 137.2 BLU.

On to FSTKKSKPIRPFVF, for which, under setting [2], the “The normalized value in BLU units (SPOT analysis, Myo5 SH3)” value is listed as 378.5 BLU. For the sequence KEFRFIFPLQPLFI, the “The normalized value in BLU units (SPOT analysis, Myo5 SH3)” value under setting [4] was found to be 749.7 BLU. As for TLKKFVLPCLPRKN, under setting [4], the “The normalized value in BLU units (SPOT analysis, Myo5 SH3)” value worked out at 504.4 BLU.

ELDIKQGPVRPFIV: the “The normalized value in BLU units (SPOT analysis, Myo5 SH3)” value under setting [2] was determined as 161.2 BLU.

For the sequence STNAKKDPFPPPKD, under setting [2], the “The normalized value in BLU units (SPOT analysis, Myo5 SH3)” value turned out to be 198.5 BLU.

Consider VPIIFEIPFNPIYK, for which the “The normalized value in BLU units” value under setting [3] was determined as 214.9 BLU. As for DDNVRPSPISPSIN, the “The normalized value in BLU units” value under setting [1] is 153.4 BLU. As to ILVAYGLPVSPDEK, the “The normalized value in BLU units (SPOT analysis, Myo5 SH3)” value under setting [4] is 166.6 BLU. Turning to ITDTKLFPGNPNLM, the “The normalized value in BLU units” value under setting [3] was determined as 94.6 BLU. In the case of LPEPRFYPLSPKNN, under setting [1], the “The normalized value in BLU units” value is on record as 289.3 BLU. For LAKDLIVPRRPEWN, the “The normalized value in BLU units (SPOT analysis, Myo5 SH3)” value under setting [4] stood at 117125.4 BLU.

Regarding SPSDFNKPDLPELI, the “The normalized value in BLU units (SPOT analysis, Myo5 SH3)” value under setting [4] stood at 316.9 BLU. With ILTCLPVPPPPVRP, the “The normalized value in BLU units (SPOT analysis, Myo5 SH3)” value under setting [4] stood at 616.9 BLU. Take KQSKRARPSSPYTV: the “The normalized value in BLU units (SPOT analysis, Myo5 SH3)” value under setting [2] is 271.3 BLU. In the case of SVNIKCWPLKPSNF, the “The normalized value in BLU units” value under setting [3] was found to be 56.5 BLU. On to KRRSKSLPITPKSI, for which, under setting [1], the “The normalized value in BLU units” value came to 920.9 BLU. For the sequence KVIRKGSPKSPAMV, the “The normalized value in BLU units” value under setting [1] turned out to be 495.7 BLU. For DARPFLKPVDPIAL, the “The normalized value in BLU units (SPOT analysis, Myo5 SH3)” value under setting [4] is recorded as 126.2 BLU. On to KLAILTCPFEPPKP, for which the “The normalized value in BLU units” value under setting [3] is reported as 173.2 BLU. Consider SFTRMPLPTPPIEG, for which the “The normalized value in BLU units (SPOT analysis, Myo5 SH3)” value under setting [4] was 287.1 BLU.

As to EPPSWKPPDLPIRL, under setting [4], the “The normalized value in BLU units (SPOT analysis, Myo5 SH3)” value is recorded as 86972.2 BLU.

Take LALLMTDPDAPSRT: the “The normalized value in BLU units” value under setting [3] is given as 177.5 BLU.

On to LPQQHLSPLIPIAI, for which the “The normalized value in BLU units” value under setting [3] turned out to be 45.3 BLU. Still for that read-out and setting: next, YLTEFSRPIPPTPS: 168.8 BLU. On the same count and under the same terms, next, FLSRYPVPDLPIYL: 1340.1 BLU. With KEFFRLTPNQPVGL, under setting [1], the “The normalized value in BLU units” value stood at 43.8 BLU. AAPKHAPPPVPNET: the “The normalized value in BLU units (SPOT analysis, Myo5 SH3)” value under setting [4] was found to be 110580.8 BLU. For DIGSKKLPTGPSKK, the “The normalized value in BLU units (SPOT analysis, Myo5 SH3)” value under setting [2] stood at 219.8 BLU. Same read-out and setting: to SSVSKLKPSLPNKL belongs 418.3 BLU. Turning to LFKRLPVPAPPMDS, under setting [4], the “The normalized value in BLU units (SPOT analysis, Myo5 SH3)” value stood at 145.1 BLU. Take NTIIKFDPGRPIYN: the “The normalized value in BLU units” value under setting [1] is 271.8 BLU. Take FEESMNNPLPPLPP: the “The normalized value in BLU units” value under setting [3] is recorded as 168.9 BLU.

For the sequence TAWDMVPPYSPLSE, under setting [3], the “The normalized value in BLU units” value came to 126.6 BLU.

Regarding INVEREAPMFPVPY, the “The normalized value in BLU units” value under setting [3] was 148.9 BLU.
